ChEMBL document CHEMBL1743201, “Casarett and Doull's Toxicology The Basic Science of Poisons, 7th edition” (2008)

Experiments:
Type in all cases: ADME
Cytochrome P450 2B6 = molecular target: T1, Cytochrome P450 2B6 (Homo sapiens, UniProt P20813); assay: Clinically relevant substrates of human liver microsomal P450 enzymes, isoform CYP2B6; conditions: microsomes
T1 sequence (P20813 whole entry): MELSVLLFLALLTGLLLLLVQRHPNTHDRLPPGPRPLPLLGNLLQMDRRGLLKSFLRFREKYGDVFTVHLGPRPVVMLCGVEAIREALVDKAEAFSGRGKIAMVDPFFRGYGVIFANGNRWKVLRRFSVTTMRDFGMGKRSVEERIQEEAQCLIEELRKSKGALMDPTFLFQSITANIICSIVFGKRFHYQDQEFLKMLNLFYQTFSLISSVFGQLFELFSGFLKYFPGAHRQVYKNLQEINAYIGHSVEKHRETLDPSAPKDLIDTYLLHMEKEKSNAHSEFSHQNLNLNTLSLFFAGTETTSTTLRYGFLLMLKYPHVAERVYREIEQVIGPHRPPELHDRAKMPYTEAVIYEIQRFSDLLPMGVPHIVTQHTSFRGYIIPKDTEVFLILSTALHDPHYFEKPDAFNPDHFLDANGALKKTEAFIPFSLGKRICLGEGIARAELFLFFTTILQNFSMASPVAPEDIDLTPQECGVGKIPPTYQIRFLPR

Cytochrome P450 2C9 = Cytochrome P450 2C9 (Homo sapiens, UniProt P11712); assay: Clinically relevant inhibitors of human liver microsomal P450 enzymes, isoform CYP2C9; conditions: microsomes
Chain of Cytochrome P450 2C9 (P11712 whole entry, canonical isoform): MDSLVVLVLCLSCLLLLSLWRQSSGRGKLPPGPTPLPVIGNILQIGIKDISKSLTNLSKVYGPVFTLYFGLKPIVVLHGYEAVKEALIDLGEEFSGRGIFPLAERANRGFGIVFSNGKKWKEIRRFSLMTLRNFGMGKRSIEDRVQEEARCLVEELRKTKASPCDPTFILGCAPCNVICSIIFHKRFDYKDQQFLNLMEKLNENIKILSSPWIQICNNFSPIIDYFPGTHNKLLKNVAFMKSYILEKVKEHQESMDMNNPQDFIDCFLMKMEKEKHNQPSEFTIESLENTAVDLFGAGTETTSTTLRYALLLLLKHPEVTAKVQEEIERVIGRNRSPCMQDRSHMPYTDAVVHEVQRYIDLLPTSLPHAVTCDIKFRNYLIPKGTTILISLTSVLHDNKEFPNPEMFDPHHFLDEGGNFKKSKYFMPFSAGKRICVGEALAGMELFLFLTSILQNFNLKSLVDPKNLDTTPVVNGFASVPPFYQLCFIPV

Sulfotransferase 1C4 = Sulfotransferase 1C4 (Homo sapiens, UniProt O75897); assay: Major substrate of human cytosolic sulfotransferase SULT1C4
Chain of Sulfotransferase 1C4 (O75897 whole entry): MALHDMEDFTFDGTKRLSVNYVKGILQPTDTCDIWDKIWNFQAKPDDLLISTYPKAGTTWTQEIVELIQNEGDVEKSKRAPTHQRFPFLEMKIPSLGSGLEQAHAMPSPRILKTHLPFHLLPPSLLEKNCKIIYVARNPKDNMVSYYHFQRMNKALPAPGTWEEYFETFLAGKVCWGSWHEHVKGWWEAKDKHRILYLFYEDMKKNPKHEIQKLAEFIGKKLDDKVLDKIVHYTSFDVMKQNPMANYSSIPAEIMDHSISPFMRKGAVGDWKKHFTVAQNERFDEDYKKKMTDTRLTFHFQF

[1] = molecular target: T2, UDP-glucuronosyltransferase 1A1 (Homo sapiens, UniProt P22309); assay: Substrate of human UDP-glucuronosyltransferase UGT1A1
T2 sequence (P22309 whole entry): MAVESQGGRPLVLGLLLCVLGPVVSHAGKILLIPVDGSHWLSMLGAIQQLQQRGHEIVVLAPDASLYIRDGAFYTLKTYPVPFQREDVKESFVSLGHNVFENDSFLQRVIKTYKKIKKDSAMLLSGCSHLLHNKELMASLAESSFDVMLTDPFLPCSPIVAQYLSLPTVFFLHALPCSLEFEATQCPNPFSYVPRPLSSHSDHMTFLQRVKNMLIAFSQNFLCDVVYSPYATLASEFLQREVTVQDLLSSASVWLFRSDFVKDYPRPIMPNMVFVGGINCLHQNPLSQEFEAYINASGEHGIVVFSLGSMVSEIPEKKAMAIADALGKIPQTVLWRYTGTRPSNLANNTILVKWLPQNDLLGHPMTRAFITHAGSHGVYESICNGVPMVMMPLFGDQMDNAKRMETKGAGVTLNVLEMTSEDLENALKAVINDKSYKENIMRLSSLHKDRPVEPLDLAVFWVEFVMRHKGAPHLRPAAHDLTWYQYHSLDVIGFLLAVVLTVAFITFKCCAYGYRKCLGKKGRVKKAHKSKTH

Sulfotransferase 1A1 = Sulfotransferase 1A1 (Homo sapiens, UniProt P50225); assay: Major substrate of human cytosolic sulfotransferase SULT1A1
Chain of Sulfotransferase 1A1 (P50225 whole entry): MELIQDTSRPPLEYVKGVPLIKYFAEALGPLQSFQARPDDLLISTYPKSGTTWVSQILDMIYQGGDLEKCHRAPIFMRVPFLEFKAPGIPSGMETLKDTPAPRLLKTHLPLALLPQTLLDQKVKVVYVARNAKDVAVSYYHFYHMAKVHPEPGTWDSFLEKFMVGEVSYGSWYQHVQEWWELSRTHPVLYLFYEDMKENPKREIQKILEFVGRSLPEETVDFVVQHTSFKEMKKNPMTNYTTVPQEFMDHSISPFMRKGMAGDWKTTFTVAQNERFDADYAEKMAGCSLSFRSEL

[2] = molecular target: T3, UDP-glucuronosyltransferase 1A6 (Homo sapiens, UniProt P19224); assay: Substrate of human UDP-glucuronosyltransferase UGT1A6
T3 sequence (P19224 whole entry): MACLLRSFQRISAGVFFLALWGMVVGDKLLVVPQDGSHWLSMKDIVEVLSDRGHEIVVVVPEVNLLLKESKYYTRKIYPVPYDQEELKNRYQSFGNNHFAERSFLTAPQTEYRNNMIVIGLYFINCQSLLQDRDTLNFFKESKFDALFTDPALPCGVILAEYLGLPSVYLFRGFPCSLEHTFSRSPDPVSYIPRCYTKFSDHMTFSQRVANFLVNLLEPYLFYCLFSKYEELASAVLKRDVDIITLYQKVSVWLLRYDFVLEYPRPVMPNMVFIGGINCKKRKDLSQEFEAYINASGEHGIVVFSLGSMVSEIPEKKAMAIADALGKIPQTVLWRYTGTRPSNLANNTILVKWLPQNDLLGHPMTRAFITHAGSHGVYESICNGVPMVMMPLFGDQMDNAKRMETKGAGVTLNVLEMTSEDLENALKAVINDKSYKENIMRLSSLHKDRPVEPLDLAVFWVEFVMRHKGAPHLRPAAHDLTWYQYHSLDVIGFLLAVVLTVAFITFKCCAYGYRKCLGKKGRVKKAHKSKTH

[3] = molecular target: T4, UDP-glucuronosyltransferase 1A9 (Homo sapiens, UniProt O60656); assay: Substrate of human UDP-glucuronosyltransferase UGT1A9
T4 sequence (O60656 whole entry): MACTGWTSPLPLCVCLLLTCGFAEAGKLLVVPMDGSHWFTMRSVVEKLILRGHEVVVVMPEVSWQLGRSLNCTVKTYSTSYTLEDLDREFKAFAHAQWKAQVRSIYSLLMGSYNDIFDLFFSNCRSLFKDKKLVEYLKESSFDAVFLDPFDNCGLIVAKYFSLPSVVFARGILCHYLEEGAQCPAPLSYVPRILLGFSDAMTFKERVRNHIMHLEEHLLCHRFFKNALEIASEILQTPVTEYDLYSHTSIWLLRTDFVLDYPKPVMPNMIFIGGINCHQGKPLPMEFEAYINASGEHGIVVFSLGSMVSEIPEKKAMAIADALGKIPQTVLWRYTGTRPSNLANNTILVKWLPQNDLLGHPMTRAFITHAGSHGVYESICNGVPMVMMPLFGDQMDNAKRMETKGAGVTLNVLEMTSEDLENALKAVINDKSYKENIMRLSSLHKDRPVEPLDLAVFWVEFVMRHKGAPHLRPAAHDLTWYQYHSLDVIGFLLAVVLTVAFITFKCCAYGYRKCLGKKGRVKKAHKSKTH

[4] = molecular target: Glutathione S-transferase P (Homo sapiens, UniProt P09211); assay: Substrates for human cytosolic glutathione transferase GSTP1
Chain of Glutathione S-transferase P (P09211 whole entry): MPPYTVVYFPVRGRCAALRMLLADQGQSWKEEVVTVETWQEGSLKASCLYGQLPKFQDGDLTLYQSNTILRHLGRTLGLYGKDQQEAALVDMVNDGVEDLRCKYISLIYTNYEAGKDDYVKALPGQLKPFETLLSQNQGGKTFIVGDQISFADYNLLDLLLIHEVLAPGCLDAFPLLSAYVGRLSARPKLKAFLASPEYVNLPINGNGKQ

[5] = molecular target: T5, Glutathione S-transferase A1 (Homo sapiens, UniProt P08263); assay: Substrates for human cytosolic glutathione transferase GSTA1
T5 sequence (P08263 whole entry): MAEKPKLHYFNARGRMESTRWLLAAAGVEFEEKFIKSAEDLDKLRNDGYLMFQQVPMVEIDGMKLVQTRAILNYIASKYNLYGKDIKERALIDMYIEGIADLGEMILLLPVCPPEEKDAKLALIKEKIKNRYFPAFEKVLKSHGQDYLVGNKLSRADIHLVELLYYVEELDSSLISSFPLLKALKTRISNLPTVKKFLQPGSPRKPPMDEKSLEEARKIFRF

Sulfotransferase 1E1 = molecular target: T6, Sulfotransferase 1E1 (Homo sapiens, UniProt P49888); assay: Major substrate of human cytosolic sulfotransferase SULT1E1
T6 sequence (P49888 whole entry): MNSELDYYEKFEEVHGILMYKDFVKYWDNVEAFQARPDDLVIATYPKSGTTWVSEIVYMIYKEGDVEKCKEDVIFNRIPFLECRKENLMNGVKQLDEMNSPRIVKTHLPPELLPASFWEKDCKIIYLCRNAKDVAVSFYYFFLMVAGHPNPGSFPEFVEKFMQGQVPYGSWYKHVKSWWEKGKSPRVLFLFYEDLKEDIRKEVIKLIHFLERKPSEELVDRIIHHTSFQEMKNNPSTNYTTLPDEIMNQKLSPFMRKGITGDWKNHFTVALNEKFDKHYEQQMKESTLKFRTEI

[6] = molecular target: T7, UDP-glucuronosyltransferase 1A3 (Homo sapiens, UniProt P35503); assay: Substrate of human UDP-glucuronosyltransferase UGT1A3
T7 sequence (P35503 whole entry): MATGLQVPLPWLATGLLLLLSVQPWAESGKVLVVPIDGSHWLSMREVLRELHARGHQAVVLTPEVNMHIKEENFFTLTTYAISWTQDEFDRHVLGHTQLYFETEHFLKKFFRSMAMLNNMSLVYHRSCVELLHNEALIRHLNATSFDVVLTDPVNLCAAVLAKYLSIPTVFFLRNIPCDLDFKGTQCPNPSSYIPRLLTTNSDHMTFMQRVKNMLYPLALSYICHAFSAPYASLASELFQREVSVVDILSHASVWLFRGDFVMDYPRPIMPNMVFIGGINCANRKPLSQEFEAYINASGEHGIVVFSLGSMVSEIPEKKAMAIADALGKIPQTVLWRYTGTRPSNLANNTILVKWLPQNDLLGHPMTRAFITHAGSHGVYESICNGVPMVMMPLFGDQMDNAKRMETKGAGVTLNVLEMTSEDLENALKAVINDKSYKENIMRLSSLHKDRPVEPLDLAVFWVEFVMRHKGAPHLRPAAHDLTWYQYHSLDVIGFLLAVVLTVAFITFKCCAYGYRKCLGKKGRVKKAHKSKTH

[7] = molecular target: T8, UDP-glucuronosyltransferase 2B7 (Homo sapiens, UniProt P16662); assay: Substrate of human UDP-glucuronosyltransferase UGT2B7
T8 sequence (P16662 whole entry): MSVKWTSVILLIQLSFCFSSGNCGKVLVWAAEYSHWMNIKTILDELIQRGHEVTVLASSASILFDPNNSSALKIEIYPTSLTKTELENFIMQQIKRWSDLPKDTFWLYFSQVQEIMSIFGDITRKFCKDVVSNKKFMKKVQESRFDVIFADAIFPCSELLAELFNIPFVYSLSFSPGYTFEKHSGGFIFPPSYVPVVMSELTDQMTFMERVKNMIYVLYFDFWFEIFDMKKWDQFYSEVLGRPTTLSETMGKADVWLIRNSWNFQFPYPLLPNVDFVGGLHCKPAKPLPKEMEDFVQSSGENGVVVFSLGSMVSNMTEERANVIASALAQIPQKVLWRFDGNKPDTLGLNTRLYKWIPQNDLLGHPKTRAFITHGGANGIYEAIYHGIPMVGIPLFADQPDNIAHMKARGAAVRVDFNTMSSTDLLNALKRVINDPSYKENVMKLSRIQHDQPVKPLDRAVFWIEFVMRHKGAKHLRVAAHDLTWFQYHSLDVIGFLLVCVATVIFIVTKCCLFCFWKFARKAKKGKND

With CC[C@@]1(c2ccccc2)NC(=O)N(C)C1=O the Activity (Cytochrome P450 2B6) was “Substrate”.
O=C(O)COc1ccc(C(=O)c2cccs2)c(Cl)c1Cl was tested, and the Activity (Cytochrome P450 2C9) was “Inhibitor”.
In the case of CCCCCCCCCc1ccc(O)cc1 [4-NONYLPHENOL], the Activity (Sulfotransferase 1C4) is reported as “Substrate”.
In the case of CC(=O)Nc1ccc(O)cc1 [ACETAMINOPHEN], the Activity [1] is reported as “Substrate”, the Activity (Sulfotransferase 1A1) is reported as “Substrate” and the Activity [2] is reported as “Substrate”. The Activity [3] was “Substrate”.
With C=CC=O [ACROLEIN] the Activity [4] was “Substrate”.
In the case of C=CC1=C(C)/C(=C/c2[nH]c(Cc3[nH]c(/C=C4\NC(=O)C(C)=C4C=C)c(C)c3CCC(=O)O)c(CCC(=O)O)c2C)NC1=O [BILIRUBIN], the Activity [1] is reported as “Substrate”.
In the case of CC(C)(c1ccc(O)cc1)c1ccc(O)cc1 [BISPHENOL A], the Activity (Sulfotransferase 1C4) is reported as “Substrate”.
CCCCCOC(=O)Nc1nc(=O)n([C@@H]2O[C@H](C)[C@@H](O)[C@H]2O)cc1F [CAPECITABINE] was tested, and the Activity (Cytochrome P450 2C9) was “Inhibitor”.
With O=C(O)CCCc1ccc(N(CCCl)CCCl)cc1 [CHLORAMBUCIL] the Activity [4] was “Substrate” and the Activity [5] was “Substrate”.
O=P1(N(CCCl)CCCl)NCCCO1 (stereo not drawn) [CYCLOPHOSPHAMIDE ANHYDROUS] was tested, and the Activity (Cytochrome P450 2B6) was “Substrate”.
In the case of CC/C(=C(/CC)c1ccc(O)cc1)c1ccc(O)cc1 [DIETHYLSTILBESTROL], the Activity (Sulfotransferase 1E1) is reported as “Substrate” and the Activity (Sulfotransferase 1C4) is reported as “Substrate”.
O=C1Nc2ccc(Cl)cc2[C@@](C#CC2CC2)(C(F)(F)F)O1 [EFAVIRENZ] was tested, and the Activity (Cytochrome P450 2B6) was “Substrate”.
For C[C@]12CC[C@@H]3c4ccc(O)cc4CC[C@H]3[C@@H]1CC[C@@H]2O[C@@H]1O[C@H](C(=O)O)[C@@H](O)[C@H](O)[C@H]1O [ESTRADIOL 17B GLUCURONIDE], the Activity [1] was “Substrate”.
With C#C[C@]1(O)CC[C@H]2[C@@H]3CCc4cc(O)ccc4[C@H]3CC[C@@]21C [ETHINYL ESTRADIOL] the Activity [1] was “Substrate” and the Activity (Sulfotransferase 1E1) was “Substrate”.
With O=C1[C@H](CC[C@H](O)c2ccc(F)cc2)[C@@H](c2ccc(O)cc2)N1c1ccc(F)cc1 [EZETIMIBE] the Activity [6] was “Substrate”.
In the case of CC(C(=O)O)c1cccc(Oc2ccccc2)c1 (stereo not drawn) [FENOPROFEN], the Activity [3] is reported as “Substrate” and the Activity [6] is reported as “Substrate”.
OC(Cn1cncn1)(Cn1cncn1)c1ccc(F)cc1F [FLUCONAZOLE] was tested, and the Activity (Cytochrome P450 2C9) was “Inhibitor”.
For Cc1cc(=O)oc2cc(O)ccc12 [HYMECROMONE], the Activity [2] was “Substrate”.
CNC1(c2ccccc2Cl)CCCCC1=O (stereo not drawn) [KETAMINE] was tested, and the Activity (Cytochrome P450 2B6) was “Substrate”.
With CC(C(=O)O)c1cccc(C(=O)c2ccccc2)c1 (stereo not drawn) [KETOPROFEN] the Activity [7] was “Substrate”, the Activity [3] was “Substrate” and the Activity [6] was “Substrate”.
In the case of CN1CCC(=C2c3ccccc3CC(=O)c3sccc32)CC1 [KETOTIFEN], the Activity [6] is reported as “Substrate”.
With CCOC(=O)C1(c2ccccc2)CCN(C)CC1 [MEPERIDINE] the Activity (Cytochrome P450 2B6) was “Substrate”.
For COc1ccc2cc([C@H](C)C(=O)O)ccc2c1 [NAPROXEN], the Activity [3] was “Substrate” and the Activity [6] was “Substrate”.
For Cc1ccnc2c1NC(=O)c1cccnc1N2C1CC1 [NEVIRAPINE], the Activity (Cytochrome P450 2B6) was “Substrate”.
In the case of C[C@]12COC(=O)C[C@@H]1CC[C@@H]1[C@@H]2CC[C@@]2(C)[C@H]1CC[C@]2(C)O [OXANDROLONE], the Activity (Cytochrome P450 2C9) is reported as “Inhibitor”.
For NCCc1c[nH]c2ccc(O)cc12 [SEROTONIN], the Activity [2] was “Substrate”.
For Nc1ccc(S(=O)(=O)Nc2ccnn2-c2ccccc2)cc1 [SULFAPHENAZOLE], the Activity (Cytochrome P450 2C9) was “Inhibitor”.
In the case of S=P(N1CC1)(N1CC1)N1CC1 [THIOTEPA], the Activity [4] is reported as “Substrate”.
